How the values were obtained:
acidic sphingomyelinase = assay: Mixed micellar assay, acidic sphingomyelinase activity in treated SQ-20B cells; assay type: cell-based, human; conditions: 5 μM chelerythrine 30 minutes then 10 Gy; within 5 minutes of IR
Procedure: (§1) FIG. 5A. […] The mixed micellar assay for sphingomyelinase activity was used to quantitate increased enzymatic activity.
(§2) The mixed micellar sphingomyelinase assay using ^[14] C labeled sphingomyelin was performed as described (Wiegmann et al., 1994) with minor modifications as described herein. Exponentially growing cells 2×10^7 were treated, collected, and lysed in 200 μl of neutral buffer (20 mM Hepes, pH 7.4; 10 mM MgCl2, 2 mM EDTA, 5 mM DTT, […], 10 mM b-glycerolphosphate, 750 μM ATP, 1 mM PMSF, Leupeptin, Pepstatin, 2% Triton X-100) or an acid buffer (pH=5.5, 2% Triton X-100, 1 mM PMSF, Leupeptin, Pepstatin). After incubation for 5 minutes at 4° C., cells were homogenized by sonication and cell debris were removed by low speed centrifugation (800×g). The protein concentration was measured using the BioRad protein assay system (BioRad). Protein (50 μg) was incubated for 2 hours at 37° C. in a buffer (1 ml final volume) containing 20 mM HEPES, 1 mM MgCl2, and 0.9 μl [N-methyl-^14 C sphingomyelin].

SQ20-B cells = assay: Clonogenic survival / colony formation assay; assay type: cell-based, human
Procedure: FIG. 2. Chelerythrine chloride enhanced IR-mediated cell killing through divisional death. Clonogenic survival was measured following exposure to increasing concentrations of chelerythrine and ionizing radiation. Cells were plated at cell numbers between about 500 cells/plate and about 2000 cells/plate and treated with 0 μM, 0.5 μM, or 1.0 μM chelerythrine chloride for 30 minutes prior to irradiation. After 2 weeks the colonies were scored for survival if they were composed of more than 50 cells. Results represent the mean of three individual experiments with duplicate or triplicate determinants. Error bars represent +/- the standard error of the means (SEM).
FIG. 5C. […] Closed circles represent radiation alone; closed squares represenet addition of 20 μM C2-Ceramide 30 minutes prior to x-ray.
Exponentially growing SQ20B cultures were trypsinized using 0.05% trypsin+0.02% EDTA. Cells (100 to 50,000) were plated in 100 mm tissue culture dishes. Chelerythrine or C2-ceramide was added 4 hours after plating and irradiated for 30 minutes after the addition of chelerythrine or C2-ceramide. The cells were irradiated using a GE Maxitron 250 x-ray generator operating at 250 kV and 26 mA with a dose rate of 114 cGy/min. After 12 days the cells were fixed and stained with crystal violet following standard procedures (Chmura et al., 1996a; 1996b). Colonies of >50 cells were scored as survivors.
Clonogenic survival was measured following increasing concentrations of chelerythrine chloride alone (0.5-1.5 μM), IR alone (1-9 Gy), or the combined treatment of cells with chelerythrine and IR. […] At a concentration of 500 nM, chelerythrine decreased cell survival to about 80% of untreated control cells (about 20% cell death). The combined treatment of cells with 500 nM of chelerythrine 30 minutes prior to treatment with 3 Gy of radiation decreased cell survival to about 30% of untreated cells (about 70% cell death). […] Cell shrinkage and nuclear condensation, characteristic of apoptosis, were not observed at these concentrations of chelerythrine and IR.

L-1210 tumor cells = conditions: l1210 cells; cited from earlier work
WEHI-231 cells = assay: Ceramide production by DAG kinase assay; assay type: cell-based, murine; conditions: Mus musculus, WEHI231, 0.5 h; 10 μM chelerythrine, approximately 30 minutes; read-out: ceramide generation increase
Procedure: FIG. 7A. Inhibition of PKC causes an increase in ceramide production through the activation of a neutral sphingomyelinase and decreases in sphingomyelin levels. Ceramide production was quantitated using the DAG kinase assay for WEHI-231 JM cells and total lipid extraction was used to assay sphingomyelin mass. Following addition of 10 μM chelerythrine, cells were lysed at the appropriate time points as described herein. Each data point represents the average percentage change in ceramide or sphingomyelin generation from baseline derived from at least 8 independent studies for all time points with the exception of those marked with * (n=4). Standard deviations depicted by error bars.
FIG. 7B. […] Ceramide production and sphingomyelin mass was quantitated identical to that for chelerythrine. Cells were lysed 2 hours following the addition of 250 nM calphostin C. […]
Quantitation of ceramide by diacylglycerol kinase was similar to that described by Dressler and Kolesnick (1990). […] Data was calculated as pmoles of ceramide/10^6 cells by scintillation counting. […]
In order to test whether PKC inhibition alters ceramide production, the DAG kinase assay was used to quantify intracellular ceramide following chelerythrine and calphostin C treatment (Dressler and Kolesnick, 1990; Preiss et al., 1986). […]

neutral sphingomyelinase = assay: Mixed micellar assay, neutral sphingomyelinase activity in treated SQ-20B cells; assay type: cell-based, human; conditions: 5 μM chelerythrine 30 minutes then 10 Gy; within 5 minutes of IR
Procedure: as §1, §2

[1] = 500 nM chelerythrine 30 minutes prior to 3 Gy

COc1ccc2c(c[n+](C)c3c4cc5c(cc4ccc23)OCO5)c1OC [chelerythrine, 1,2-dimethoxy-12-methyl[1,3]benzodioxolo[5,6-c]phenanthridinium]
acidic sphingomyelinase activity, x-rays and chelerythrine (acidic sphingomyelinase): about 170 % of control
cell death, combined treatment (SQ20-B cells; [1]): about 70%
cell survival, combined treatment (SQ20-B cells; [1]): about 30 % of untreated cells
cytotoxicity at 0.5 µM (SQ20-B cells; Homo sapiens, SQ20B, read-out: cell death): ~20%
viability at 0.5 µM (SQ20-B cells; Homo sapiens, SQ20B, 500 nM chelerythrine alone): ~80%
IC50 (L-1210 tumor cells): 53 nM
activation at 10 µM (WEHI-231 cells): 100%
neutral sphingomyelinase activity, x-rays and chelerythrine (neutral sphingomyelinase): about 200 % of control
